Laboratory results as given in ChEMBL document CHEMBL5634137, “2,4-Diacetylphloroglucinol (DAPG) derivatives rapidly eradicate methicillin-resistant staphylococcus aureus without resistance development by disrupting membrane” (Eur J Med Chem, 2023).
≈ marks a conversion by molar mass, not a printed value.

Experiments:
Staphylococcus aureus [1] = experiment: Antibacterial activity against methicillin-resistant Staphylococcus aureus ATCC 4330 assessed as inhibition of bacterial growth incubated for 24 hrs by broth dilution method; type: functional
Staphylococcus aureus [2] = experiment: Antibacterial activity against methicillin-resistant Staphylococcus aureus ATCC 3392 assessed as inhibition of bacterial growth incubated for 24 hrs by broth dilution method; type: functional
Staphylococcus aureus [3] = experiment: Antibacterial activity against Methicillin-resistant Staphylococcus aureus USA300 assessed as inhibition of bacterial growth incubated for 24 hrs by broth dilution method; type: functional
Escherichia coli = experiment: Antibacterial activity against Escherichia coli ATCC 11775 assessed as inhibition of bacterial growth incubated for 24 hrs by broth dilution method; type: functional
Klebsiella pneumoniae = experiment: Antibacterial activity against Klebsiella pneumoniae […] assessed as inhibition of bacterial growth incubated for 24 hrs by broth dilution method; type: functional
Pseudomonas aeruginosa = experiment: Antibacterial activity against Pseudomonas aeruginosa […] assessed as inhibition of bacterial growth incubated for 24 hrs by broth dilution method; type: functional
Staphylococcus aureus [4] = experiment: Bactericidal against methicillin-resistant Staphylococcus aureus ATCC 4330 assessed as inhibition of bacterial growth incubated for 24 hrs by broth dilution method; type: functional
Staphylococcus aureus [5] = experiment: Bactericidal activity against methicillin-resistant Staphylococcus aureus ATCC 3392 assessed as inhibition of bacterial growth incubated for 24 hrs by broth dilution method; type: functional
Staphylococcus aureus [6] = experiment: Selectivity index, ratio of MBC for bactericidal against methicillin-resistant Staphylococcus aureus ATCC 4330 to MIC for antibacterial activity against methicillin-resistant Staphylococcus aureus ATCC 4330; type: functional
Staphylococcus aureus [7] = experiment: Selectivity index, ratio of MBC for bactericidal against methicillin-resistant Staphylococcus aureus ATCC 3392 to MIC for antibacterial activity against methicillin-resistant Staphylococcus aureus ATCC 3392; type: functional
[8] = Cytotoxicity against mouse RAW264.7 cells assessed as survival rate incubated for 24 hrs by MTT assay; type: toxicity, cell-based; set-up: concentration or dose not given beside the values; conditions: read-out: Survival
[9] = Cytotoxicity against human L02 cells assessed as survival rate incubated for 24 hrs by MTT assay; type: toxicity, cell-based; set-up: concentration or dose not given beside the values; conditions: read-out: Survival

Compound: CC(=O)c1c(O)cc(O)cc1O [2,4,6-TRIHYDROXYACETOPHENONE]
- MIC (Staphylococcus aureus [1]): > 64 µg/mL
- MIC (Staphylococcus aureus [2]): > 64 µg/mL

Compound: CCC(=O)c1c(O)cc(O)c(C(=O)CC)c1O
- MIC (Staphylococcus aureus [1]): 4 µg/mL (≈ 16.8 µM)
- MIC (Staphylococcus aureus [2]): 8 µg/mL (≈ 33.6 µM)

Compound: CCC(C)C(=O)c1c(O)cc(O)c(C(=O)C(C)CC)c1O (stereo not given)
- MIC (Staphylococcus aureus [1]): 4 µg/mL (≈ 13.6 µM)
- MIC (Staphylococcus aureus [2]): 4 µg/mL (≈ 13.6 µM)

Compound: CCCCCC(=O)c1c(O)cc(O)c(C(=O)CCCCC)c1O
- MIC (Staphylococcus aureus [3]): 0.5 µg/mL (≈ 1.55 µM)
- MIC (Escherichia coli): > 64 µg/mL
- MIC (Klebsiella pneumoniae): > 64 µg/mL
- MIC (Pseudomonas aeruginosa): > 64 µg/mL
- MBC (Staphylococcus aureus [4]): 2 µg/mL (≈ 6.2 µM)
- MBC (Staphylococcus aureus [5]): 2 µg/mL (≈ 6.2 µM)
- MIC (Staphylococcus aureus [1]): 0.5 µg/mL (≈ 1.55 µM)
- MIC (Staphylococcus aureus [2]): 0.5 µg/mL (≈ 1.55 µM)
- Selectivity Index (Staphylococcus aureus [6]): 4
- Selectivity Index (Staphylococcus aureus [7]): 4

Compound: O=C(c1c(O)cc(O)cc1O)C1CCC1
- MIC (Staphylococcus aureus [1]): 32 µg/mL (≈ 154 µM)
- MIC (Staphylococcus aureus [2]): 32 µg/mL (≈ 154 µM)

Compound: C[C@H]1c2cccc(O)c2C(=O)C2=C(O)[C@]3(O)C(=O)C(C(N)=O)=C(O)[C@@H](N(C)C)[C@@H]3[C@@H](O)[C@@H]21 [DOXYCYCLINE ANHYDROUS]
- MIC (Staphylococcus aureus [3]): 0.5 µg/mL (≈ 1.13 µM)

Compound: CC(=O)c1c(O)cc(O)c(C(C)=O)c1O
- MIC (Staphylococcus aureus [3]): 8 µg/mL (≈ 38.1 µM)
- MIC (Escherichia coli): > 64 µg/mL
- MIC (Klebsiella pneumoniae): > 64 µg/mL
- MIC (Pseudomonas aeruginosa): > 64 µg/mL
- MBC (Staphylococcus aureus [4]): 32 µg/mL (≈ 152 µM)
- MBC (Staphylococcus aureus [5]): 64 µg/mL (≈ 304 µM)
- MIC (Staphylococcus aureus [1]): 8 µg/mL (≈ 38.1 µM)
- MIC (Staphylococcus aureus [2]): 4 µg/mL (≈ 19 µM)
- Selectivity Index (Staphylococcus aureus [6]): 4
- Selectivity Index (Staphylococcus aureus [7]): 16

Compound: CCCCC(=O)c1c(O)cc(O)c(C(=O)C(C)CC)c1O (stereo not given)
- MIC (Staphylococcus aureus [3]): 1 µg/mL (≈ 3.4 µM)
- MIC (Escherichia coli): > 64 µg/mL
- MIC (Klebsiella pneumoniae): > 64 µg/mL
- MIC (Pseudomonas aeruginosa): > 64 µg/mL
- MBC (Staphylococcus aureus [4]): 4 µg/mL (≈ 13.6 µM)
- MBC (Staphylococcus aureus [5]): 8 µg/mL (≈ 27.2 µM)
- MIC (Staphylococcus aureus [1]): 1 µg/mL (≈ 3.4 µM)
- MIC (Staphylococcus aureus [2]): 1 µg/mL (≈ 3.4 µM)
- Selectivity Index (Staphylococcus aureus [6]): 4
- Selectivity Index (Staphylococcus aureus [7]): 8
- viability at 24 h [8]: 76%
- viability at 24 h [9]: 75%

Compound: CCCCCCCCCCCCCCCC(=O)c1c(O)cc(O)c(C(=O)CCCCCCCCCCCCCCC)c1O
- MIC (Staphylococcus aureus [1]): > 64 µg/mL
- MIC (Staphylococcus aureus [2]): > 64 µg/mL

Compound: O=Cc1c(O)cc(O)c(C=O)c1O
- MIC (Staphylococcus aureus [1]): > 64 µg/mL
- MIC (Staphylococcus aureus [2]): > 64 µg/mL

Compound: CCCCCCCC(=O)c1c(O)cc(O)c(C(=O)CCCCCCC)c1O
- MIC (Staphylococcus aureus [3]): 2 µg/mL (≈ 5.28 µM)
- MIC (Escherichia coli): > 64 µg/mL
- MIC (Klebsiella pneumoniae): > 64 µg/mL
- MIC (Pseudomonas aeruginosa): > 64 µg/mL
- MBC (Staphylococcus aureus [4]): 1 µg/mL (≈ 2.64 µM)
- MBC (Staphylococcus aureus [5]): 2 µg/mL (≈ 5.28 µM)
- MIC (Staphylococcus aureus [1]): 1 µg/mL (≈ 2.64 µM)
- MIC (Staphylococcus aureus [2]): 2 µg/mL (≈ 5.28 µM)
- Selectivity Index (Staphylococcus aureus [6]): 1
- Selectivity Index (Staphylococcus aureus [7]): 1

Compound: O=C(c1c(O)cc(O)cc1O)C1CCCC1
- MIC (Staphylococcus aureus [1]): 64 µg/mL (≈ 288 µM)
- MIC (Staphylococcus aureus [2]): 64 µg/mL (≈ 288 µM)

Compound: CCCCCCCCCC(=O)c1c(O)cc(O)cc1O
- MIC (Staphylococcus aureus [1]): 32 µg/mL (≈ 114 µM)
- MIC (Staphylococcus aureus [2]): 32 µg/mL (≈ 114 µM)

Compound: O=C(c1c(O)cc(O)c(C(=O)C2CCCCC2)c1O)C1CCCCC1
- MIC (Staphylococcus aureus [3]): 0.5 µg/mL (≈ 1.44 µM)
- MIC (Escherichia coli): > 64 µg/mL
- MIC (Klebsiella pneumoniae): > 64 µg/mL
- MIC (Pseudomonas aeruginosa): > 64 µg/mL
- MBC (Staphylococcus aureus [4]): 8 µg/mL (≈ 23.1 µM)
- MBC (Staphylococcus aureus [5]): 2 µg/mL (≈ 5.77 µM)
- MIC (Staphylococcus aureus [1]): 1 µg/mL (≈ 2.89 µM)
- MIC (Staphylococcus aureus [2]): 0.5 µg/mL (≈ 1.44 µM)
- Selectivity Index (Staphylococcus aureus [6]): 8
- Selectivity Index (Staphylococcus aureus [7]): 4

Compound: COc1cc(O)c(C(C)=O)c(OC)c1C(C)=O
- MIC (Staphylococcus aureus [1]): > 64 µg/mL
- MIC (Staphylococcus aureus [2]): > 64 µg/mL

Compound: O=C(Cc1ccccc1)c1c(O)cc(O)c(C(=O)Cc2ccccc2)c1O
- MIC (Staphylococcus aureus [3]): 1 µg/mL (≈ 2.76 µM)
- MIC (Escherichia coli): 64 µg/mL (≈ 177 µM)
- MIC (Klebsiella pneumoniae): > 64 µg/mL
- MIC (Pseudomonas aeruginosa): > 64 µg/mL
- MBC (Staphylococcus aureus [4]): 8 µg/mL (≈ 22.1 µM)
- MBC (Staphylococcus aureus [5]): 8 µg/mL (≈ 22.1 µM)
- MIC (Staphylococcus aureus [1]): 0.5 µg/mL (≈ 1.38 µM)
- MIC (Staphylococcus aureus [2]): 1 µg/mL (≈ 2.76 µM)
- Selectivity Index (Staphylococcus aureus [7]): 8

Compound: O=C(c1c(O)cc(O)c(C(=O)C2CC2)c1O)C1CC1
- MIC (Staphylococcus aureus [1]): 8 µg/mL (≈ 30.5 µM)
- MIC (Staphylococcus aureus [2]): 8 µg/mL (≈ 30.5 µM)

Compound: O=C(c1c(O)cc(O)c(C(=O)C2CCC2)c1O)C1CCC1
- MIC (Staphylococcus aureus [3]): 1 µg/mL (≈ 3.44 µM)
- MIC (Escherichia coli): 64 µg/mL (≈ 220 µM)
- MIC (Klebsiella pneumoniae): > 64 µg/mL
- MIC (Pseudomonas aeruginosa): > 64 µg/mL
- MBC (Staphylococcus aureus [4]): 4 µg/mL (≈ 13.8 µM)
- MBC (Staphylococcus aureus [5]): 8 µg/mL (≈ 27.6 µM)
- MIC (Staphylococcus aureus [1]): 2 µg/mL (≈ 6.89 µM)
- MIC (Staphylococcus aureus [2]): 2 µg/mL (≈ 6.89 µM)
- Selectivity Index (Staphylococcus aureus [6]): 2
- Selectivity Index (Staphylococcus aureus [7]): 4

Compound: CC(C)(C)CC(=O)c1c(O)cc(O)cc1O
- MIC (Staphylococcus aureus [1]): 64 µg/mL (≈ 285 µM)
- MIC (Staphylococcus aureus [2]): > 64 µg/mL

Compound: CCCCC(=O)c1c(O)cc(O)c(C(=O)C(C)C)c1O
- MIC (Staphylococcus aureus [3]): 1 µg/mL (≈ 3.57 µM)
- MIC (Escherichia coli): > 64 µg/mL
- MIC (Klebsiella pneumoniae): > 64 µg/mL
- MIC (Pseudomonas aeruginosa): > 64 µg/mL
- MBC (Staphylococcus aureus [4]): 8 µg/mL (≈ 28.5 µM)
- MBC (Staphylococcus aureus [5]): 8 µg/mL (≈ 28.5 µM)
- MIC (Staphylococcus aureus [1]): 2 µg/mL (≈ 7.13 µM)
- MIC (Staphylococcus aureus [2]): 2 µg/mL (≈ 7.13 µM)
- Selectivity Index (Staphylococcus aureus [6]): 4
- Selectivity Index (Staphylococcus aureus [7]): 4
- viability at 24 h [8]: 76%
- viability at 24 h [9]: 75%

Compound: CCCC(=O)c1c(O)cc(O)c(C(=O)CCC)c1O
- MIC (Staphylococcus aureus [1]): 4 µg/mL (≈ 15 µM)
- MIC (Staphylococcus aureus [2]): 4 µg/mL (≈ 15 µM)

Compound: COc1cc(OC)c(C(C)=O)c(OC)c1C(C)=O
- MIC (Staphylococcus aureus [1]): > 64 µg/mL
- MIC (Staphylococcus aureus [2]): > 64 µg/mL

Compound: COc1cc(O)c(C(C)=O)c(O)c1C(C)=O
- MIC (Staphylococcus aureus [1]): > 64 µg/mL
- MIC (Staphylococcus aureus [2]): > 64 µg/mL

Compound: O=C(c1c(O)cc(O)cc1O)C1CC1
- MIC (Staphylococcus aureus [1]): 16 µg/mL (≈ 82.4 µM)
- MIC (Staphylococcus aureus [2]): 32 µg/mL (≈ 165 µM)

Compound: CCCCCCCCC(=O)c1c(O)cc(O)cc1O
- MIC (Staphylococcus aureus [1]): 8 µg/mL (≈ 30 µM)
- MIC (Staphylococcus aureus [2]): 8 µg/mL (≈ 30 µM)

Compound: CCCCC(=O)c1c(O)cc(O)cc1O
- MIC (Staphylococcus aureus [1]): > 64 µg/mL
- MIC (Staphylococcus aureus [2]): > 64 µg/mL

Compound: CCCCC(=O)c1c(O)cc(O)c(C(C)=O)c1O
- MIC (Staphylococcus aureus [1]): 4 µg/mL (≈ 15.9 µM)
- MIC (Staphylococcus aureus [2]): 8 µg/mL (≈ 31.7 µM)
